In patent US7399608B2, “Microbial detection and quantification” (Kimberly-Clark Worldwide, Inc., priority 2003, dated 2008):

Tests used:
[1] = tested on: bacteria in aged chicken juice; test: Dried dye coating on ceramic surface with or without TWEEN 80, aged chicken juice; details: 80 mg/10 mL acetonitrile with 200 μL TWEEN 80, dried on ceramic, drop of aged chicken juice
Source text: This solution was then used to coat a ceramic surface (FIG. 11) and allowed to air dry. […] After drying, a drop of aged chicken juice known to have a high bacterial count was placed on the each coating area (11B). […] Furthermore, the addition of TWEEN® surfactant allowed for easy removal of the dye from the surface.

E. coli [2] = test: De-colorization of Reichardt's dye-coated paper by bacteria solutions; design: species or system Escherichia coli; details: paper brush-coated with 80 mg/10 mL acetonitrile; 100 μL of 10^7 to 10^4 CFU/mL
Protocol: This experiment tested the ability of a surface coating of Reichardt's dye to respond to bacterial contamination. […] To this paper was added 100 μL aliquots of 10^7, 10^6, 10^5, and 10^4 CFU/mL E. coli or S. aureus solutions (8B). Water was used as a negative control. […] It was later determined that while both bacteria solutions were indeed at 10^7 CFU/mL concentrations, the actual concentration of the S. aureus solution was 7×10^7 CFU/mL compared to 1×10^7 CFU/mL for the E. coli solution.

E. coli [3] = test: Titration of substrate-bound microorganism with Reichardt's dye solution; design: species or system Escherichia coli; details: 160 mg in 10 ml acetonitrile, 10 μl aliquots; 100 μl of 10^7 CFU/ml on towel
[4] = Reichardt's dye indicator with bacterial cell-wall components; details: 160 mg in 10 mL acetonitrile
[5] = tested on: vaginal fluid samples (lactobacillus, BV bacteria); test: Reichardt's dye-coated stickers with normal and BV-infected vaginal fluid
Protocol: Considering the high prevalence of vaginal infections of bacterial origin, an experiment was performed to determine the response of Reichardt's dye-coated stickers to healthy (low pH, no bacterial infection), a pH positive/Bacterial Vaginosis (BV) negative (no bacterial infection, but higher than normal pH), and pH positive/BV positive (higher than normal pH and known bacterial infection) vaginal fluid samples. […] A sticker of each concentration was tested with normal, BV positive/pH positive, and BV negative/pH positive vaginal fluid samples.

S. aureus [6] = test: Solvent choice for Reichardt's dye coatings on SCOTT towels; design: species or system Staphylococcus aureus; details: coated SCOTT towel, 100 μl aliquots of S. aureus
Protocol: Solutions of Reichardt's dye in acetonitrile, isopropanol, and xylenes were prepared and the solutions were used to coat SCOTT® kitchen rolls towels and allowed to air-dry (FIGS. 12A and 12D).

E. coli [7] = test: Dry sample testing on dye-coated towel; design: species or system Escherichia coli; details: dry colony rubbed onto pre-moistened dye coated SCOTT towel
Protocol: A test using the Reichardt's dye coated paper towel with a “dry” bacteria sample, not in solution was carried out. A dry sample of a colony of E. coli bacteria lifted off an agar petri dish containing a series of growing cultures was used. This dry sample was then rubbed onto a pre-moistened dye coated SCOTT® paper towel. The area where the colony was placed and rubbed turned colorless within 1-5 seconds. This is a similar to how a wet wipe towel would be used and it performed well.

[8] = UV-Vis absorption spectra in different solvents; type: physicochemical
Source text: Reichardt's dye was used without further purification. […] Solvents used were obtained from Aldrich Chemical and were HPLC grade. A Shimadzu UV-1601 UV-Visible Spectrophotometer (Shimadzu Corporation) was used to measure the longest wavelength peak absorption of the dyes in the range of 400 to 800 nm, dissolved in three different solvents, contained in quartz curvettes. The following table contains the results of the testing with the solvents on the left side and dyes across the top.

[9] = tested on: Herpes Simplex Virus 1 (HSV-1); test: Virus detection with Reichardt's dye-coated stickers; details: 50-microliter droplet, 3 minutes
Influenza A = test: as above
vaccinia = details: 50-microliter droplet, 3 minutes
S. aureus [10] = test: Semi-quantification of bacterial contamination on dye-treated paper; design: species or system Staphylococcus aureus
Protocol: The color differences at lower concentrations were less distinct, particularly for the brush-coated sheet. A blind study was then conducted. […] Concentrations of these three drops were unknown to two of the experiment participants. After approximately 2 minutes, the drops were removed and blotted. Using the control regions, the concentrations of each sample were each visually estimated by these two persons. Both persons correctly estimated the concentration of the first sample to be 10^6 CFU/mL. […] The persons, however, incorrectly estimated the third sample to be 10^3 CFU/mL. […] The present inventors believe, however, that the concentration of the chromogen and uniformity of the coating may be readily selected to achieve accurate results at such low concentrations.

P. aeruginosa = test: Quantification of bacterial contamination by Delta E (hand-held spectrophotometer); design: species or system Psuedomonas aeruginosa; details: label substrate, log CFU/ml (actual) 6
Source text: More specifically, indicator strips coated with Reichardt's dye were exposed with decreasing amounts of the bacteria aliquots. A hand-held spectrophotometer was used to after application of each aliquot to determine “Delta E” value (calculated using L*, A*, and B* values) for each CFU/mL concentration. The results are set forth below in Table 4 (for paper) and Table 5 (for label). From the above, standard detection curves were generated as shown in FIGS. 5-7 for S. aureus, P. aeruginosa, and E. coli, respectively. As shown, each type of bacteria changed the color of the dye-treated substrate in a slightly different way, creating a unique standard curve. Thereafter, drops of unknown bacteria concentrations were placed on the stickers and a spectrophotometer was used to measure the “Delta E” of the resulting color. The numerical values obtained for each unknown sample set forth below in Tables 6-7. […] Although a few of the results were not completely accurate, the present inventors believe that improving the uniformity of the coating would further enhance detection accuracy.

[11] = tested on: bacteria in aged chicken juice; test: Dye solution dropped onto aged chicken juice on SCOTT paper towel (comparative examples); details: 100 mg suspended in 10 ml acetonitrile, dropped onto aged chicken juice on SCOTT paper towel

[O-]c1c(-c2ccccc2)cc(-[n+]2c(-c3ccccc3)cc(-c3ccccc3)cc2-c2ccccc2)cc1-c1ccccc1 [Reichardt's dye, 2,6-diphenyl-4-(2,4,6-triphenylpyridinio)-phenolate]
de-colorization faster with TWEEN 80 surfactant than without [1]: 20 to 30 s
de-colorization time (E. coli [2]): < 1 min
Amount of Dye Required for Persistent Color (E. coli [3]): 80 µL
de-colorization by the other cell-wall compounds (LPS, detoxified LPS, lipoteichoic acid) [4]: eventual de-colorization
de-colorization by muramic acid ([4]; both experimental set-ups): near instantaneous de-colorization
de-colorization by BV negative/pH positive vaginal fluid [5]: only faintly de-colorized
de-colorization by BV positive/pH positive vaginal fluid [5]: next sharpest de-colorization
de-colorization by normal vaginal fluid [5]: sharpest de-colorization
color change of coating made from acetonitrile solution (S. aureus [6]): rapid de-colorization
color change of coatings made from isopropanol and xylenes solutions (S. aureus [6]): No visible color change
time to turn colorless (E. coli [7]): 1 to 5 s
perceived color of solution ([8]; Acetone): (bluish-green)
perceived color of solution ([8]; Acetonitrile): (Blue)
perceived color of solution ([8]; Methanol): (red)
de-colorization of sticker by undiluted virus [9]: stronger de-colorization of the sticker than that observed for Rhinovirus and Polio virus
de-colorization of sticker by undiluted virus (Influenza A): less than that observed for the other viruses
de-colorization of sticker by undiluted virus (vaccinia): less than that observed for the other viruses
visually estimated concentration, blind study third sample (S. aureus [10]; actual 10^4 CFU/mL, dip-coated sheet): 10^3 CFU/mL
visually estimated concentration, blind study second sample (S. aureus [10]; actual 10^5 CFU/mL, brush-coated sheet): 10^5 CFU/mL
visually estimated concentration, blind study first sample (S. aureus [10]; actual 10^6 CFU/mL, dip-coated sheet): 10^6 CFU/mL
Delta E, unknown sample (P. aeruginosa): 4.1002
color change on aged chicken juice (control) [11]: immediately decolorized
